Assay results as given in PubChem BioAssay AID1918996 (Molecular Pharmacology Branch, DTP, NCI, 2023).

System: 349418-098-R-PDC complex spheroid growth
Assay: Anticancer human tumor 349418-098-R-PDC patient-derived lung adenocarcinoma cell line growth inhibition [AhR]
Conditions: for IC50: curve of first compound; for viability, T/C: stronger effect = lower value
In short: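 Spheroids combined tumor cells with HUVEC endothelial cells and human MSCs as stroma. AhR antagonists were paired with standard or investigational drugs, each dosed in half-log steps down from near clinical Cmax, or from 10 microM where Cmax was unknown.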
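Note: spheroids exposed to agents for seven days before luminescence viability read.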
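Throughout, for viability, T/C: spheroids also contain HUVEC endothelial cells and human MSC stroma.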

Structure (SMILES): Nc1ccn(C2OC(CO)C(O)C2(F)F)c(=O)n1 (stereo not given) + CC(CO)NC(=O)c1cc(-c2ccc(Cl)cc2)nn(-c2cnn(C)c2)c1=O
- IC50 (second compound 0.1 µM): < 31.6 nM
- IC50 (second compound 0.316 µM): < 31.6 nM
- IC50 (second compound 1 µM): < 31.6 nM
- IC50 (second compound 3.16 µM): < 31.6 nM
- IC50 (second compound 10 µM): < 31.6 nM
- viability, T/C (second compound 0.1 µM, first compound 0.0316 µM): 11.7%
- viability, T/C (second compound 0.1 µM, first compound 0.1 µM): 13.3%
- viability, T/C (second compound 0.1 µM, first compound 0.316 µM): 12.8%
- viability, T/C (second compound 0.1 µM, first compound 1 µM): 10.8%
- viability, T/C (second compound 0.1 µM, first compound 3.16 µM): 9.89%
- viability, T/C (second compound 0.1 µM, first compound 10 µM): 7.31%
- viability, T/C (second compound 0.316 µM, first compound 0.0316 µM): 11.5%
- viability, T/C (second compound 0.316 µM, first compound 0.1 µM): 12.5%
- viability, T/C (second compound 0.316 µM, first compound 0.316 µM): 13.3%
- viability, T/C (second compound 0.316 µM, first compound 1 µM): 10.6%
- viability, T/C (second compound 0.316 µM, first compound 3.16 µM): 9.24%
- viability, T/C (second compound 0.316 µM, first compound 10 µM): 6.37%
- viability, T/C (second compound 1 µM, first compound 0.0316 µM): 12.7%
- viability, T/C (second compound 1 µM, first compound 0.1 µM): 13.5%
- viability, T/C (second compound 1 µM, first compound 0.316 µM): 13.3%
- viability, T/C (second compound 1 µM, first compound 1 µM): 11.2%
- viability, T/C (second compound 1 µM, first compound 3.16 µM): 8.78%
- viability, T/C (second compound 1 µM, first compound 10 µM): 5.77%
- viability, T/C (second compound 3.16 µM, first compound 0.0316 µM): 12.1%
- viability, T/C (second compound 3.16 µM, first compound 0.1 µM): 13.4%
- viability, T/C (second compound 3.16 µM, first compound 0.316 µM): 12.8%
- viability, T/C (second compound 3.16 µM, first compound 1 µM): 9.14%
- viability, T/C (second compound 3.16 µM, first compound 3.16 µM): 7.92%
- viability, T/C (second compound 3.16 µM, first compound 10 µM): 7.72%
- viability, T/C (second compound 10 µM, first compound 0.0316 µM): 12.3%
- viability, T/C (second compound 10 µM, first compound 0.1 µM): 11%
- viability, T/C (second compound 10 µM, first compound 0.316 µM): 11.6%
- viability, T/C (second compound 10 µM, first compound 1 µM): 8.92%
- viability, T/C (second compound 10 µM, first compound 3.16 µM): 7.77%
- viability, T/C (second compound 10 µM, first compound 10 µM): 8.23%

Structure (SMILES): Nc1ncn(C2CC(O)C(CO)S2)c(=O)n1 (stereo not given) + Cc1cncc(-c2nc(NCCc3c[nH]c4ccccc34)c3ncn(C(C)C)c3n2)c1
- IC50 (second compound 0.1 µM): 133 nM
- IC50 (second compound 0.316 µM): 133 nM
- IC50 (second compound 1 µM): < 0.949 nM
- IC50 (second compound 3.16 µM): 76.2 nM
- IC50 (second compound 10 µM): < 0.949 nM
- viability, T/C (second compound 0.1 µM, first compound 0.000949 µM): 102%
- viability, T/C (second compound 0.1 µM, first compound 0.003 µM): 96.7%
- viability, T/C (second compound 0.1 µM, first compound 0.00949 µM): 90.8%
- viability, T/C (second compound 0.1 µM, first compound 0.03 µM): 74.5%
- viability, T/C (second compound 0.1 µM, first compound 0.0949 µM): 59.3%
- viability, T/C (second compound 0.1 µM, first compound 0.3 µM): 30.7%
- viability, T/C (second compound 0.316 µM, first compound 0.000949 µM): 88.6%
- viability, T/C (second compound 0.316 µM, first compound 0.003 µM): 93.7%
- viability, T/C (second compound 0.316 µM, first compound 0.00949 µM): 83%
- viability, T/C (second compound 0.316 µM, first compound 0.03 µM): 71.4%
- viability, T/C (second compound 0.316 µM, first compound 0.0949 µM): 59.1%
- viability, T/C (second compound 0.316 µM, first compound 0.3 µM): 31.8%
- viability, T/C (second compound 1 µM, first compound 0.000949 µM): 47.5%
- viability, T/C (second compound 1 µM, first compound 0.003 µM): 42.5%
- viability, T/C (second compound 1 µM, first compound 0.00949 µM): 38.9%
- viability, T/C (second compound 1 µM, first compound 0.03 µM): 37.6%
- viability, T/C (second compound 1 µM, first compound 0.0949 µM): 30.4%
- viability, T/C (second compound 1 µM, first compound 0.3 µM): 24%
- viability, T/C (second compound 3.16 µM, first compound 0.000949 µM): 70%
- viability, T/C (second compound 3.16 µM, first compound 0.003 µM): 86.3%
- viability, T/C (second compound 3.16 µM, first compound 0.00949 µM): 94.6%
- viability, T/C (second compound 3.16 µM, first compound 0.03 µM): 73.6%
- viability, T/C (second compound 3.16 µM, first compound 0.0949 µM): 44.7%
- viability, T/C (second compound 3.16 µM, first compound 0.3 µM): 30.6%
- viability, T/C (second compound 10 µM, first compound 0.000949 µM): 2.25%
- viability, T/C (second compound 10 µM, first compound 0.003 µM): 2.66%
- viability, T/C (second compound 10 µM, first compound 0.00949 µM): 2.49%
- viability, T/C (second compound 10 µM, first compound 0.03 µM): 2.15%
- viability, T/C (second compound 10 µM, first compound 0.0949 µM): 2.02%
- viability, T/C (second compound 10 µM, first compound 0.3 µM): 2.32%
